Results: patent publication US20250332397A1, “SYSTEMS AND METHODS FOR MICRONEEDLE THERAPEUTIC DELIVERY WITH ACOUSTIC SIGNALS” (THE TRUSTEES OF INDIANA UNIVERSITY, priority 2021, published 2025)

How the values were obtained:
[1] = Ex vivo delivery in mice skin tissues (dye released, absorbance); type: in vitro ADME, BALB/c mice; conditions: FIG. 10; 1 Mhz, duty cycle 15%, 4.2 w/cm^2; 30 s, 60 s, 180 s
Source text: The prepared RhB dye (or epinephrine) loaded acoustic patches (or passive patches) were inserted into the fresh hair removed skin tissues harvested from BALB/c mice, and removed from the mice skin tissues. The acoustic path treatment condition (frequency, 1 Mhz; duty cycle, 15%; energy density, 4.2 w/cm^2) was applied to three mouse skin tissues, while there was not acoustic stimulation for passive patch treatments. The mouse skin tissues after acoustic patch and passive treatments with three different treatment time (e.g., 30 s, 60 s, or 180 s) were analyzed.

[2] = acoustic patch mediated delivery, mouse "B"

Description for anaphylactic mouse model: Olbumin from chicken egg white (OVA) was used as antigen to induce anaphylaxis, where OVA dosage could regulate the degree of anaphylaxis. Specifically, an OVA solution as an adjuvant was prepared in 1 mg/mL of OVA with 1 μg/mL of Pertussis toxin and 10 mg/mL of aluminum potassium sulfate in 0.9% saline. To sensitize mice, BALB/c mice were injected intraperitoneally with 100 μL of the adjuvant OVA solution. After 3 weeks, these actively sensitize mice were challenged with 10 mg/mL of the adjuvant OVA solution. To trigger the anaphylactic reaction, a 50 μL of 10 mg/mL OVA solution in 0.9% saline was injected intraperitoneally into a mouse. The whole anaphylactic process lasted for about 120 mins, and all the mice were sacrificed after the experimental procedures.
The mice during anaphylaxis were characterized via physiological parameters and symptoms including rectal temperature, movement score, respiratory rate, or blood histamine level. Rectal temperature was measured using a rectal probe for mice in every 2 min in real-time. Respiratory rate was measured through counting the breaths during every 20 seconds through observing the thoracic movement. Movement score was tested by rules as follows: (1) react actively after provoking; (2) slow in response after provoking; (3) no active response after provoking; (4) died. Blood histamine level was measured by testing whole blood samples through tail vein through an ELISA kit (Catalog No: IT6088, vendors). Samples were all restored in −80° C. refrigerator for later assessment of the concentration of histamine by an ELISA kit.
Mice were sensitized via intraperitoneal injection of chicken ovalbumin (OVA) and aluminum potassium sulfate adjuvant and triggered an acute allergic reaction by injecting OVA as an allergen after three weeks. […] We measured the core temperature and respiratory rate of the sensitized mice during the induction of anaphylaxis.

Row | dye released into mouse skin over different delivery times, with acoustics vs without acoustics [1] | Compound | allergic symptoms of mouse experiencing severe anaphylaxis (anaphylactic mouse model; [2]) | body temperature of mouse experiencing severe anaphylaxis (anaphylactic mouse model; [2]) | symptoms of anaphylaxis (hypothermia, reduced activity, opisthotonos) (anaphylactic mouse model; after intramuscular injection)
1 | increased delivery | CCN(CC)c1ccc2c(-c3ccc(S(=O)(=O)O)cc3S(=O)(=O)[O-])c3ccc(=[N+](CC)CC)cc-3oc2c1 [RhB dye, sulforhodamine B] |  |  | 
2 |  | CNC[C@H](O)c1ccc(O)c(O)c1 [epinephrine] | relief from allergic symptoms | immediate body temperature increase | obtained relief from these symptoms
